Laboratory results published in PubChem BioAssay AID2060890 (Molecular Pharmacology Branch, DTP, NCI, 2025).
pIC50: −log10 of the molar value.

Tested on: LG0703-F948-PDC complex spheroid viability
Assay: Anticancer human tumor LG0703-F948-PDC patient-derived lung adenocarcinoma cell line growth inhibition [RAS]
Conditions: for pIC50: curve of first compound; for viability, T/C: stronger effect = lower value
Description: RAS pathway inhibitors in Combinations in Complex Spheroids
A high-throughput screen of multi-cell type tumor spheroids was designed to identify active combinations of RAS pathway inhibitors and targeted small molecules. Complex spheroids include a stromal component modeled by human endothelial cells (HUVEC) and fibroblasts modeled by human mesenchymal stem cells (MSCs). The concentration ranges selected for each drug and investigational agent were based upon clinically achievable concentrations if the clinical Cmax of the agent was known.
Compounds. The drugs and investigational agents: abemaciclib (NSC768073), cobimetinib (NSC768068), divarasib (GDC6063, NSC841802), docetaxel (NSC628503), GDC-1971 (RLY-1971, NSC841576), gemcitabine (NSC613327), inavolisib (NSC800729), ipatasertib (NSC767898), KB-0742 (NSC834161), MRTX-1133 (NSC836407), osimertinib (NSC779217), RMC-4630 (NSC839698), RMC-6236 (NSC851965), RMC-6291 (NSC852671), Ro-3306 (NSC812927), sapanisertib (NSC764658), SN-38 (NSC673596), staurosporine (NSC755774), SY5609 (NSC837396), and tovorafenib (DAY101, NSC766906), were obtained from the National Cancer Institute (NCI) Developmental Therapeutics Program Chemical Repository. The FDA-approved anticancer drug set is available from the NCI Developmental Therapeutics Program. […] The stock solutions were prepared in dimethyl sulfoxide (DMSO, Sigma-Aldrich, St. Louis, MO, cat. D2650) at 800-fold the tested concentration and stored at -70 degrees C prior to their use. All drugs and investigational agents were tested over a range starting from a high concentration at or near the clinical Cmax and decreasing in half-log increments. If the clinical Cmax for an agent had not been determined, the highest concentration tested was 10 microM.
Cell Culture. All cells were maintained in an incubator at 37 degrees C and 5% CO2 with 95% humidity. The PDC lines were cultured according to standard operating procedures established by the NCI PDMR. All PDCs were thawed and cultured in Matrigel-coated flasks prepared with a working solution of 1X Ham's F-12 nutrient mix, without supplementation (Invitrogen, Waltham, MA, cat. 11765054), 100 U/mL penicillin-streptomycin (Invitrogen, cat. 15140122), and 2.5% Matrigel (Corning Inc., Corning, NY, cat. 354248) for the first three passages. The 362531-283-R-J2-PDC and 782815-120-R-J1-PDC lines were cultured in 6C/Colon 1B media, which includes advanced DMEM/F-12 (Thermo Fisher Scientific, cat. 12634028), 10 mM HEPES (Thermo Fisher Scientific, cat. 15630080), 1X GlutaMAX supplement (Thermo Fisher Scientific, cat. 35050061), 0.1 mg/mL primocin (InvivoGen, San Diego, CA, cat. ant-pm-2), 10% defined fetal bovine serum, heat inactivated (HyClone Laboratories Inc., Logan, UT, cat. SH30070.03HI), 50% L-WRN conditioned media (ATCC, cat. CRL-3276), 1.25 mM N-Acetyl-L-cysteine (Sigma-Aldrich, cat. A9165), 10 mM nicotinamide (Sigma-Aldrich, cat. N0636), 1X B-27 supplement (Thermo Fisher Scientific, cat. 17504044), 1X N-2 supplement (Thermo Fisher Scientific, cat. 17502048), 50 ng/mL human EGF (Thermo Fisher Scientific, cat. PHG0311), and 10 microM Y-27632 dihydrochloride (Tocris Bioscience, cat. 1254). The K12877-001-R-J1-PDC line was cultured in 6I media, which includes all 6C/Colon 1B media plus 10 ng/mL human FGF-10 (PeproTech, cat. 100-26), 1 ng/mL human FGF-2 (PeproTech, cat. 100-18B), 1 µM prostaglandin E2 (Tocris Bioscience, cat. 2296), […] hydrocortisone (Sigma-Aldrich, cat. H4001), and […] bovine insulin (Sigma-Aldrich, cat. I6634). The K86415-001-R-J1-PDC line was cultured in 6D media, which includes all 6C/Colon 1B media components minus the L-WRN conditioned media. The 485176-168-R4-J1-PDC was cultured in PANC media, which includes all 6C/Colon 1B media plus 100 ng/mL human FGF-10 (PeproTech, cat. 100-26), 500 nM SB-431542 (Selleckchem, cat. S1067), and 10 nM gastrin (Tocris Bioscience, cat. 3006). […]
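Note: spheroids exposed to agents for 7 days.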
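Throughout, for viability, T/C: 100% = DMSO vehicle wells.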

CC1(C)CCC(Nc2ncc(C(F)(F)F)c(-c3c[nH]c4c(P(C)(C)=O)c(C#N)ccc34)n2)CN1 (configuration not stated) + CCn1c(-c2cccnc2C(C)OC)c2c3cc(ccc31)N1CCOC(CC(NC(=O)C(C(C)C)N(C)C(=O)C3(F)CCN(C(=O)C#CC(C)(C)N(C)C)CC3)C(=O)N3CCCC(N3)C(=O)OCC(C)(C)C2)C1
pIC50 (second compound 0.000949 µM): < 6.52 | pIC50 (second compound 0.003 µM): < 6.52 | pIC50 (second compound 0.00949 µM): < 6.52 | pIC50 (second compound 0.03 µM): < 6.52 | pIC50 (second compound 0.0949 µM): < 6.52 | pIC50 (second compound 0.3 µM): > 9.02 | viability, T/C (second compound 0.000949 µM, first compound 0.000949 µM): 83.4% | viability, T/C (second compound 0.000949 µM, first compound 0.003 µM): 70.4% | viability, T/C (second compound 0.000949 µM, first compound 0.00949 µM): 67.1% | viability, T/C (second compound 0.000949 µM, first compound 0.03 µM): 60.1% | viability, T/C (second compound 0.000949 µM, first compound 0.0949 µM): 67.3% | viability, T/C (second compound 0.000949 µM, first compound 0.3 µM): 56.5% | viability, T/C (second compound 0.003 µM, first compound 0.000949 µM): 89.2% | viability, T/C (second compound 0.003 µM, first compound 0.003 µM): 84.9% | viability, T/C (second compound 0.003 µM, first compound 0.00949 µM): 58.1% | viability, T/C (second compound 0.003 µM, first compound 0.03 µM): 62.2% | viability, T/C (second compound 0.003 µM, first compound 0.0949 µM): 61.5% | viability, T/C (second compound 0.003 µM, first compound 0.3 µM): 68.7% | viability, T/C (second compound 0.00949 µM, first compound 0.000949 µM): 75% | viability, T/C (second compound 0.00949 µM, first compound 0.003 µM): 72.7% | viability, T/C (second compound 0.00949 µM, first compound 0.00949 µM): 77.8% | viability, T/C (second compound 0.00949 µM, first compound 0.03 µM): 57.7% | viability, T/C (second compound 0.00949 µM, first compound 0.0949 µM): 64.8% | viability, T/C (second compound 0.00949 µM, first compound 0.3 µM): 67.2% | viability, T/C (second compound 0.03 µM, first compound 0.000949 µM): 86.5% | viability, T/C (second compound 0.03 µM, first compound 0.003 µM): 79.5% | viability, T/C (second compound 0.03 µM, first compound 0.00949 µM): 62.6% | viability, T/C (second compound 0.03 µM, first compound 0.03 µM): 66.1% | viability, T/C (second compound 0.03 µM, first compound 0.0949 µM): 59.4% | viability, T/C (second compound 0.03 µM, first compound 0.3 µM): 60.4% | viability, T/C (second compound 0.0949 µM, first compound 0.000949 µM): 82.9% | viability, T/C (second compound 0.0949 µM, first compound 0.003 µM): 68.2% | viability, T/C (second compound 0.0949 µM, first compound 0.00949 µM): 65% | viability, T/C (second compound 0.0949 µM, first compound 0.03 µM): 55% | viability, T/C (second compound 0.0949 µM, first compound 0.0949 µM): 65.7% | viability, T/C (second compound 0.0949 µM, first compound 0.3 µM): 63.7% | viability, T/C (second compound 0.3 µM, first compound 0.000949 µM): 39.1% | viability, T/C (second compound 0.3 µM, first compound 0.003 µM): 49.9% | viability, T/C (second compound 0.3 µM, first compound 0.00949 µM): 48.5% | viability, T/C (second compound 0.3 µM, first compound 0.03 µM): 46.1% | viability, T/C (second compound 0.3 µM, first compound 0.0949 µM): 48.8% | viability, T/C (second compound 0.3 µM, first compound 0.3 µM): 46.2%
